# Tested on: A. baumannii
# Experiment: MIC by broth microdilution (CLSI), panel of 60 A. baumannii clinical isolates (Example 1)
# [1] = Acinetobacter baumannii, strain ARC593, OXA-98
# [2] = Acinetobacter baumannii, strain ARC2461, OXA-66, TEM-1
# [3] = Acinetobacter baumannii, strain ARC2462, TEM-1, OXA-66
# [4] = Acinetobacter baumannii, strain ARC2598, OXA*, TEM-1, OXA-113
# [5] = Acinetobacter baumannii, strain ARC2635, OXA-65, OXA-40, TEM-1
# [6] = Acinetobacter baumannii, strain ARC2636, OXA-65, OXA-40, TEM-1
# [7] = Acinetobacter baumannii, strain ARC2674, SHV-5, OXA-113
# [8] = Acinetobacter baumannii, strain ARC2675, SHV-5, OXA-113
# [9] = Acinetobacter baumannii, strain ARC2681, OXA-40, TEM-1, OXA-132
# [10] = Acinetobacter baumannii, strain ARC2682, SHV-5, OXA-113
# [11] = Acinetobacter baumannii, strain ARC2777, OXA-172, TEM-1
# [12] = Acinetobacter baumannii, strain ARC2778, OXA-40, TEM-1, OXA-65
# [13] = Acinetobacter baumannii, strain ARC2780 (A. baumannii/calcoaceticus complex), OXA*, OXA-2, IMP-1
# [14] = Acinetobacter baumannii, strain ARC2782, OXA-66, OXA-23, TEM-1, PER-1
# [15] = Acinetobacter baumannii, strain ARC2788, OXA-65, TEM-1
# [16] = Acinetobacter baumannii, strain ARC3484, TEM-1, OXA-23, OXA-64
# [17] = Acinetobacter baumannii, strain ARC3485, OXA-82
# [18] = Acinetobacter baumannii, strain ARC3486, OXA-72, OXA-66, TEM-1
# [19] = Acinetobacter baumannii, strain ARC3487, OXA-20, OXA-58, OXA-66
# [20] = Acinetobacter baumannii, strain ARC3488, OXA*, OXA-68
# [21] = Acinetobacter baumannii, strain ARC3489, OXA*, OXA-68
# [22] = Acinetobacter baumannii, strain ARC3490, TEM-1+, PSE-2, OXA-69
# [23] = Acinetobacter baumannii, strain ARC3491 (A. baumannii/calcoaceticus complex), OXA-215
# [24] = Acinetobacter baumannii, strain ARC3492, OXA-40, OXA-132, TEM-1
# [25] = Acinetobacter baumannii, strain ARC3493, OXA-40, OXA-66
# [26] = Acinetobacter baumannii, strain ARC3494, OXA-65
# [27] = Acinetobacter baumannii, strain ARC3495, OXA-40, OXA-109
# [28] = Acinetobacter baumannii, strain ARC3513, TEM-1, OXA-23, OXA-65
# [29] = Acinetobacter baumannii, strain ARC3515, OXA-64, OXA-58
# [30] = Acinetobacter baumannii, strain ARC3657, OXA-130
# [31] = Acinetobacter baumannii, strain ARC3658, OXA-66, PER-1, TEM-1, OXA-23
# [32] = Acinetobacter baumannii, strain ARC3659, OXA-23, OXA*
# [33] = Acinetobacter baumannii, strain ARC3882, OXA-23, NDM-1, OXA-10*
# [34] = Acinetobacter baumannii, strain ARC5073, OXA-23, TEM-1, OXA-64, PER-1
# [35] = Acinetobacter baumannii, strain ARC5074, GES*, TEM-1, OXA-51
# [36] = Acinetobacter baumannii, strain ARC5075, SHV-5, OXA-113
# [37] = Acinetobacter baumannii, strain ARC5076, TEM-1, OXA-23, OXA-66
# [38] = Acinetobacter baumannii, strain ARC5077, OXA*, OXA-72
# [39] = Acinetobacter baumannii, strain ARC5079, OXA-72, OXA-65
# [40] = Acinetobacter baumannii, strain ARC5080, OXA-71, OXA-40
# [41] = Acinetobacter baumannii, strain ARC5081, OXA-94, OXA-23
# [42] = Acinetobacter baumannii, strain ARC5082, OXA-66, OXA-23
# [43] = Acinetobacter baumannii, strain ARC5083, OXA-66, OXA-23
# [44] = Acinetobacter baumannii, strain ARC5084, IMP-4(B), OXA-58, OXA-65
# [45] = Acinetobacter baumannii, strain ARC5085, OXA*, TEM-1
# [46] = Acinetobacter baumannii, strain ARC5086, OXA*, TEM-1, OXA-72, OXA-66
# [47] = Acinetobacter baumannii, strain ARC5087, OXA-66, OXA-23
# [48] = Acinetobacter baumannii, strain ARC5088, OXA-20, OXA-58, OXA-66
# [49] = Acinetobacter baumannii, strain ARC5089, PER*, TEM-1, OXA-23, OXA-66
# [50] = Acinetobacter baumannii, strain ARC5091, OXA-82, OXA-23
# [51] = Acinetobacter baumannii, strain ARC5092, OXA-23, OXA-64
smiles,measurement,setting,value
"CN(C)[C@@H]1C(O)=C(C(N)=O)C(=O)[C@@]2(O)C(O)=C3C(=O)c4c(O)cccc4[C@@](C)(O)[C@H]3C[C@@H]12 [TET, tetracycline]",MIC50,Acinetobacter baumannii,16 µg/mL
same,MIC90,Acinetobacter baumannii,> 32 µg/mL
same,MIC,[1],2 µg/mL
same,MIC,"Acinetobacter baumannii, strain ARC2058, OXA-95",1 µg/mL
same,MIC,[2],> 32 µg/mL
same,MIC,[3],> 32 µg/mL
same,MIC,[4],> 32 µg/mL
same,MIC,[5],8 µg/mL
same,MIC,[6],16 µg/mL
same,MIC,[7],> 32 µg/mL
same,MIC,[8],16 µg/mL
same,MIC,[9],> 32 µg/mL
same,MIC,[10],8 µg/mL
same,MIC,[11],32 µg/mL
same,MIC,[12],> 32 µg/mL
same,MIC,"Acinetobacter baumannii, strain ARC2779 (A. baumannii/calcoaceticus complex), OXA-2, VIM-2",2 µg/mL
same,MIC,[13],2 µg/mL
same,MIC,[14],> 32 µg/mL
same,MIC,[15],4 µg/mL
same,MIC,[16],> 32 µg/mL
same,MIC,[17],32 µg/mL
same,MIC,[18],> 32 µg/mL
same,MIC,[19],16 µg/mL
same,MIC,[20],> 32 µg/mL
same,MIC,[21],> 32 µg/mL
same,MIC,[22],8 µg/mL
same,MIC,[23],4 µg/mL
same,MIC,[24],> 32 µg/mL
same,MIC,[25],> 32 µg/mL
same,MIC,[26],2 µg/mL
same,MIC,[27],> 32 µg/mL
same,MIC,[28],8 µg/mL
same,MIC,[29],> 32 µg/mL
same,MIC,[30],8 µg/mL
same,MIC,[31],> 32 µg/mL
same,MIC,[32],8 µg/mL
same,MIC,[33],8 µg/mL
same,MIC,[34],> 32 µg/mL
same,MIC,[35],1 µg/mL
same,MIC,[36],> 32 µg/mL
same,MIC,[37],> 32 µg/mL
same,MIC,[38],> 32 µg/mL
same,MIC,[39],8 µg/mL
same,MIC,[40],16 µg/mL
same,MIC,[41],2 µg/mL
same,MIC,[42],> 32 µg/mL
same,MIC,[43],> 32 µg/mL
same,MIC,[44],2 µg/mL
same,MIC,[45],> 32 µg/mL
same,MIC,[46],> 32 µg/mL
same,MIC,[47],> 32 µg/mL
same,MIC,[48],16 µg/mL
same,MIC,[49],4 µg/mL
same,MIC,[50],32 µg/mL
same,MIC,[51],32 µg/mL
"C[C@H]1COc2c(N3CCN(C)CC3)c(F)cc3c(=O)c(C(=O)O)cn1c23 [LEVO, levofloxacin]",MIC50,Acinetobacter baumannii,8 µg/mL
same,MIC90,Acinetobacter baumannii,32 µg/mL
same,MIC,[1],0.25 µg/mL
same,MIC,[2],16 µg/mL
same,MIC,[3],16 µg/mL
same,MIC,[4],4 µg/mL
same,MIC,[5],16 µg/mL
same,MIC,[6],16 µg/mL
same,MIC,[7],16 µg/mL
same,MIC,[8],32 µg/mL
same,MIC,[9],16 µg/mL
same,MIC,[10],16 µg/mL
same,MIC,[11],32 µg/mL
same,MIC,[12],32 µg/mL
same,MIC,[13],4 µg/mL
same,MIC,[14],4 µg/mL
same,MIC,[15],32 µg/mL
same,MIC,[16],8 µg/mL
same,MIC,[17],16 µg/mL
same,MIC,[18],8 µg/mL
same,MIC,[19],8 µg/mL
same,MIC,[20],32 µg/mL
same,MIC,[21],16 µg/mL
same,MIC,[22],16 µg/mL
same,MIC,[23],1 µg/mL
same,MIC,[24],8 µg/mL
same,MIC,[25],4 µg/mL
same,MIC,[26],0.25 µg/mL
same,MIC,[27],4 µg/mL
same,MIC,[28],16 µg/mL
same,MIC,[29],8 µg/mL
same,MIC,[30],16 µg/mL
same,MIC,[31],8 µg/mL
same,MIC,[32],8 µg/mL
same,MIC,[33],4 µg/mL
same,MIC,[34],8 µg/mL
same,MIC,[35],4 µg/mL
same,MIC,[36],32 µg/mL
same,MIC,[37],8 µg/mL
same,MIC,[38],16 µg/mL
same,MIC,[39],16 µg/mL
same,MIC,[40],16 µg/mL
same,MIC,[41],8 µg/mL
same,MIC,[42],8 µg/mL
same,MIC,[43],> 32 µg/mL
same,MIC,[44],4 µg/mL
same,MIC,[45],32 µg/mL
same,MIC,[46],16 µg/mL
same,MIC,[47],> 32 µg/mL
same,MIC,[48],8 µg/mL
same,MIC,[49],16 µg/mL
same,MIC,[50],> 32 µg/mL
same,MIC,[51],8 µg/mL
same,MIC,"strain ARC2058, OXA-95",0.125 µg/mL
same,MIC,"strain ARC2779 (A. baumannii/calcoaceticus complex), OXA-2, VIM-2",0.125 µg/mL
